Reference: US9828379B2 (priority 2013, dated 2017)

Columns and labels:
ABHD6 [1] = molecular target: T1, ABHD6 (Mus musculus, UniProt Q8R2Y0); test: biochemical; details: in vitro competitive ABPP
T1 sequence (Q8R2Y0 1-336): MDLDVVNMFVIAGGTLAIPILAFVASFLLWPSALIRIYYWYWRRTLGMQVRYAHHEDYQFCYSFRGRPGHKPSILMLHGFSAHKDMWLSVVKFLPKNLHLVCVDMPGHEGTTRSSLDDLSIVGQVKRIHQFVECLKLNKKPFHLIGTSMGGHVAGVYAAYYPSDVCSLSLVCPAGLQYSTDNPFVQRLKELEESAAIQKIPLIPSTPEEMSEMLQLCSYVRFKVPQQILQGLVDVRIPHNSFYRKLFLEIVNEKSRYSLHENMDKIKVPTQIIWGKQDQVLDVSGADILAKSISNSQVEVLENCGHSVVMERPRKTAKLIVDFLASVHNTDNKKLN

FAAH [2] = molecular target: T2, FAAH (Mus musculus, UniProt O08914); test: biochemical; details: in vitro competitive ABPP
T2 sequence (O08914 1-579): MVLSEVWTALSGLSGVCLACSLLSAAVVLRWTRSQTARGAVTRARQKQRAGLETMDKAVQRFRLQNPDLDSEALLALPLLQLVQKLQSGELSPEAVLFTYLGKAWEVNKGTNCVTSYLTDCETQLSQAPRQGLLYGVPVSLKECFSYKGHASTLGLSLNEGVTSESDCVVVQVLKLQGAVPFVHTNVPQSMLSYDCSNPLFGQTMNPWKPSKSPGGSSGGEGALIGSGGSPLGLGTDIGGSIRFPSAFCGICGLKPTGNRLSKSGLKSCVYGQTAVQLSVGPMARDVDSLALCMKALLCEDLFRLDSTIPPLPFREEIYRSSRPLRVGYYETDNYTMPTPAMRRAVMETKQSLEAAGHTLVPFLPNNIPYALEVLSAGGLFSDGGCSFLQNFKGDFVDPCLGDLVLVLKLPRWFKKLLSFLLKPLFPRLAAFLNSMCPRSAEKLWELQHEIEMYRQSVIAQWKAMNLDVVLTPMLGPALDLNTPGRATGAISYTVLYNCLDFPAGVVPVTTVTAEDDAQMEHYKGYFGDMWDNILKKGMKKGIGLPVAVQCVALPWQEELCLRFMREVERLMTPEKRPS

MAGL [3] = molecular target: T3, MAGL (Mus musculus, UniProt O35678); test: biochemical; details: mouse; in vitro competitive ABPP; read-out: Mouse (IC50 value, nM) MAGL
T3 sequence (O35678 1-303): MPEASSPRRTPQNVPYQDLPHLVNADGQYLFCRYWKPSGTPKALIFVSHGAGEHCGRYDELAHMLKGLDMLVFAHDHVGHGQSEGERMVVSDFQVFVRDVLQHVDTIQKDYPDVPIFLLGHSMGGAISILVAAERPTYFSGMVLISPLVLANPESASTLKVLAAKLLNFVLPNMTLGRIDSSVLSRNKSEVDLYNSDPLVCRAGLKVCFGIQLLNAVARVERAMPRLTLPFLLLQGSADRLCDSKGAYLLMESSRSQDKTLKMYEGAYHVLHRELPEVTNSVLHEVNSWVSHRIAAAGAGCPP

ABHD6 [4] = molecular target: T1, ABHD6; test: In vitro competitive activity-based protein profiling (Table 2, % inhibition at 1 μM); type: biochemical; details: read-out: % Inhibition at 1 μM ABHD6
FAAH [5] = molecular target: T2, FAAH; test: as above; type: biochemical; details: read-out: % Inhibition at 1 μM FAAH
MAGL [6] = molecular target: T3, MAGL; test: as above; type: biochemical; details: read-out: % Inhibition at 1 μM MAGL
Experimental: After 30 min, FP—Rh (1.0 μL, 50 μM in DMSO) was added and the mixture was incubated for another 30 min at 37° C. Reactions were quenched with SDS loading buffer (50 μL-4×) and run on SDS-PAGE.
Cell lysates were diluted with mock proteomes for use in competitive ABPP experiments.

| Structure (SMILES) | IC50 (ABHD6 [1]) [nM] | IC50 (FAAH [2]) [nM] | IC50 (MAGL [3]) [nM] | inhibition at 1 µM (ABHD6 [4]) [%] | inhibition at 1 µM (FAAH [5]) [%] | inhibition at 1 µM (MAGL [6]) [%] |
| --- | --- | --- | --- | --- | --- | --- |
| O=C(OC(C(F)(F)F)C(F)(F)F)N1CC2CN(Cc3ccc(N4CCOCC4)cc3Cl)CC2C1 (stereo not drawn) [Example 2, 1,1,1,3,3,3-Hexafluoropropan-2-yl 5-(2-chloro-4-morpholinobenzyl)hexahydropyrrolo[3,4-c]pyrrole-2(1H)-carboxylate] | 1000 to 10000 | 100 to 1000 | < 100 | < 25 | 25 to 75 | > 75 |
| Cc1cccc(CN2CC3CN(C(=O)OC(C(F)(F)F)C(F)(F)F)CC3C2)c1N1CCOCC1 (stereo not drawn) [Example 41, 1,1,1,3,3,3-Hexafluoropropan-2-yl 5-[[3-methyl-2-(morpholin-4-yl)phenyl]methyl]-octahydropyrrolo[3,4-c]pyrrole-2-carboxylate] | 1000 to 10000 | 1000 to 10000 | 100 to 1000 | < 25 | < 25 | > 75 |
| O=C(OC(C(F)(F)F)C(F)(F)F)N1CC2CN(Cc3ccc(N4CCOCC4)cc3F)CC2C1 (stereo not drawn) [Example 1, 1,1,1,3,3,3-Hexafluoropropan-2-yl 5-(2-fluoro-4-morpholinobenzyl)hexahydropyrrolo[3,4-c]pyrrole-2(1H)-carboxylate] | 1000 to 10000 | 100 to 1000 | < 100 | < 25 | 25 to 75 | > 75 |
| CC(C)c1ccc(CN2CC3CN(C(=O)OC(C(F)(F)F)C(F)(F)F)CC3C2)c(N2CCCC2)c1 (stereo not drawn) [Example 23, 1,1,1,3,3,3-Hexafluoropropan-2-yl 5-[[4-(propan-2-yl)-2-(pyrrolidin-1-yl)phenyl]methyl]-octahydropyrrolo[3,4-c]pyrrole-2-carboxylate] | 1000 to 10000 | 1000 to 10000 | 100 to 1000 | < 25 | < 25 | > 75 |
| O=C(OC(C(F)(F)F)C(F)(F)F)N1CC2CN(Cc3ccc(N4CCOCC4)cc3C(F)F)CC2C1 (stereo not drawn) [Example 200, 1,1,1,3,3,3-hexafluoropropan-2-yl 5-(2-(difluoromethyl)-4-morpholinobenzyl)hexahydropyrrolo[3,4-c]pyrrole-2(1H)-carboxylate] | 1000 to 10000 | 1000 to 10000 | 100 to 1000 | < 25 | 25 to 75 | > 75 |
| O=C(OC(C(F)(F)F)C(F)(F)F)N1CC2CN(Cc3ccc(N4CCCC4)cc3C(F)F)CC2C1 (stereo not drawn) [Example 202, 1,1,1,3,3,3-hexafluoropropan-2-yl 5-(2-(difluoromethyl)-4-(pyrrolidin-1-yl)benzyl)hexahydropyrrolo[3,4-c]pyrrole-2(1H)-carboxylate] | 1000 to 10000 | 1000 to 10000 | 100 to 1000 | < 25 | 25 to 75 | > 75 |
| O=C(OC(C(F)(F)F)C(F)(F)F)N1CC2CN(Cc3ccc(Cl)cc3N3CCN4CCC[C@@H]4C3)CC2C1 (stereo partly drawn) [Example 35, 1,1,1,3,3,3-Hexafluoropropan-2-yl 5-(4-chloro-2-((R)-hexahydropyrrolo[1,2-a]pyrazin-2(1H)-yl)benzyl)-hexahydropyrrolo[3,4-c]pyrrole-2(1H)-carboxylate] | 1000 to 10000 | > 10000 | 100 to 1000 | < 25 | < 25 | > 75 |
| CC(=O)N1CCN(c2cc(F)ccc2CN2CC3CN(C(=O)OC(C(F)(F)F)C(F)(F)F)CC3C2)CC1 (stereo not drawn) [Example 17, 1,1,1,3,3,3-Hexafluoropropan-2-yl 5-[[2-(4-acetylpiperazin-1-yl)-4-fluorophenyl]methyl]-octahydropyrrolo[3,4-c]pyrrole-2-carboxylate] | 1000 to 10000 | 1000 to 10000 | 100 to 1000 | < 25 | 25 to 75 | > 75 |
| O=C(OC(C(F)(F)F)C(F)(F)F)N1CC2CN(Cc3ccc(C(F)F)cc3N3CCCCC3)CC2C1 (stereo not drawn) [Example 204, 1,1,1,3,3,3-hexafluoropropan-2-yl 5-(4-(difluoromethyl)-2-(piperidin-1-yl)benzyl)hexahydropyrrolo[3,4-c]pyrrole-2(1H)-carboxylate] | 1000 to 10000 | 1000 to 10000 | < 100 | < 25 | < 25 | > 75 |
| Cc1c(CN2CC3CN(C(=O)OC(C(F)(F)F)C(F)(F)F)CC3C2)cccc1C(=O)N1CCCC1 (stereo not drawn) [Example 186, 1,1,1,3,3,3-hexafluoropropan-2-yl 5-(2-methyl-3-(pyrrolidine-1-carbonyl)benzyl)hexahydropyrrolo[3,4-c]pyrrole-2(1H)-carboxylate] | 1000 to 10000 | 1000 to 10000 | < 100 | 25 to 75 | < 25 | > 75 |
| Cc1c(CN2CC3CN(C(=O)ON4C(=O)CCC4=O)CC3C2)cccc1N1CCC(F)(F)CC1 (stereo not drawn) [Example 144, 2,5-dioxopyrrolidin-1-yl 5-[[3-(4,4-difluoropiperidin-1-yl)-2-methylphenyl]methyl]-octahydropyrrolo[3,4-c]pyrrole-2-carboxylate] | 1000 to 10000 | 100 to 1000 | < 100 | < 25 | > 75 | > 75 |
| O=C(OC(C(F)(F)F)C(F)(F)F)N1CC2CN(Cc3cc(CN4CCCC4)cc(OC(F)(F)F)c3)CC2C1 (stereo not drawn) [Example 185, 1,1,1,3,3,3-hexafluoropropan-2-yl 5-(3-(pyrrolidin-1-ylmethyl)-5-(trifluoromethoxy)benzyl)hexahydropyrrolo[3,4-c]pyrrole-2(1H)-carboxylate] | 1000 to 10000 | > 10000 | 100 to 1000 | < 25 | < 25 | > 75 |
| CCN1CCN(c2cccc(CN3CC4CN(C(=O)OC(C(F)(F)F)C(F)(F)F)CC4C3)c2C)CC1 (stereo not drawn) [Example 155, 1,1,1,3,3,3-hexafluoropropan-2-yl 5-[[3-(4-ethylpiperazin-1-yl)-2-methylphenyl]methyl]-octahydropyrrolo[3,4-c]pyrrole-2-carboxylate] | 1000 to 10000 | 1000 to 10000 | 100 to 1000 | 25 to 75 | 25 to 75 | > 75 |
| CC1COCCN1c1ccc(CN2CC3CN(C(=O)OC(C(F)(F)F)C(F)(F)F)CC3C2)c(F)c1 (stereo not drawn) [Example 25, 1,1,1,3,3,3-Hexafluoropropan-2-yl 5-[[2-fluoro-4-(3-methylmorpholin-4-yl)phenyl]methyl]-octahydropyrrolo[3,4-c]pyrrole-2-carboxylate] | 1000 to 10000 | 1000 to 10000 | < 100 | 25 to 75 | 25 to 75 | > 75 |
| Cc1c(CN2CC3CN(C(=O)OC(C(F)(F)F)C(F)(F)F)CC3C2)cccc1N1CCC(F)(F)CC1 (stereo not drawn) [Example 153, 1,1,1,3,3,3-hexafluoropropan-2-yl 5-[[3-(4,4-difluoropiperidin-1-yl)-2-methylphenyl]methyl]-octahydropyrrolo[3,4-c]pyrrole-2-carboxylate] | > 10000 | 1000 to 10000 | < 100 | < 25 | 25 to 75 | > 75 |
| O=C(OC(C(F)(F)F)C(F)(F)F)N1CC2CN(Cc3ccc(N4CCOCC4)cc3OC(F)(F)F)CC2C1 (stereo not drawn) [Example 11, 1,1,1,3,3,3-Hexafluoropropan-2-yl 5-[[4-(morpholin-4-yl)-2-(trifluoromethoxy)phenyl]methyl]-octahydropyrrolo[3,4-c]pyrrole-2-carboxylate] | 100 to 1000 | 100 to 1000 | < 100 | < 25 | > 75 | > 75 |
